Measurements as given in patent US4387104A, “N-Substituted pyruvic acid hydrazones, preparation thereof and pharmaceutical compositions containing them” (Boehringer Mannheim GmbH, priority 1980, dated 1983).

Assays:
[1] = test system: fasting glycemia (blood-glucose concentration); experiment: threshold dose of blood-sugar-lowering activity in fasting guinea pigs; format: in vivo; details: Cavia porcellus, ip; guinea pig, i.p., potassium salt, pH 7.4; significant lowering of fasting glycemia (p<0.05), N=4 per dose group
Description: (§1) To establish the pharmacological properties of the compounds in accordance with the invention, blood-sugar-lowering activity and resorption inhibition were determined in separate tests and compared with two structurally related compounds.
Fasting guinea pigs were used as experimental model to determine the threshold dose of the blood-lowering activity of the substances to be investigated. Food was withheld from the individual animals used in the investigation for 16 hours prior to the start of the tests. The animals were kept unfed throughout the testing period but had free access to drinking water.
The substances were administered through intraperitoneal injection of a solution of the potassium salt at pH 7.4.
A control group carried along in parallel was given an 0.9% NaCl solution.
The drawing of blood for determination of the glucose concentrations was effected immediately prior to administration of the substances and at one-hour intervals up to the fourth hour after the administration of the substances. To this end, an ear vein was carefully punctured with a No. 18 cannula, and the drops of blood issuing were picked up with a 10 μl capillary.
The blood-glucose concentration was determined in the hemolysate by the specific hexokinase method. To this end, the 10 μl blood sample was pipetted into a stabilizer solution containing digitonin as hemolysis accelerator and maleinimide as glycolysis inhibitor. Following this, an aliquot was taken from the hemolysate so obtained and determined by the hexokinase method on an LKB 8600 (made by LKB, Bromma, Sweden).
The dose which with the specified number of test animals per dose group (N=4) was just large enough to produce a significant lowering of fasting glycemia (p<0.05) was adopted as threshold dose.

[2] = test system: glucose resorption; experiment: resorption-inhibiting activity (oral glucose loading) in fasting guinea pigs; format: in vivo; details: Cavia porcellus, PIG1, ip, guinea pig, 1 g glucose p.o., AUC difference vs control; for inhibition in vivo at 10 mg/kg: dose 10 mg/kg i.p.; for inhibition in vivo at 40 mg/kg: dose 40 mg/kg i.p.; for inhibition in vivo at 20 mg/kg: dose 20 mg/kg i.p.
Description: as §1
To determine the effect on glucose resorption, oral glucose loading was effected. To this end, the substance to be tested was administered intraperitoneally as potassium salt, as described, to a group of ten fasting guinea pigs. At the same time, 1 g glucose was orally administered to the animals as a 20% solution by means of an esophageal bougie.
After a preliminary value has been established, up to […] blood was taken from the animals at close (20-minute) intervals for determination of the glucose concentrations, as described.
A control group carried along in parallel also was given 1 g glucose p.o., and intraperitoneally a corresponding amount of 0.9% NaCl solution.
The blood-glucose concentration was determined in the hemolysate by the hexokinase method, as described.
With regard to glucose resorption, the area under the concentration/time curve, calculated by means of the empirical trapeze formula, served as quantity to be measured. The difference in the area between the control and test groups, expressed in percent, was used as a measure for the inhibition of glucose resorption.

Row | SMILES | minimal effective dose [1] [mg/kg] | inhibition in vivo at 10 mg/kg [2] [%] | inhibition in vivo at 15 mg/kg ([2]; dose 15 mg/kg i.p.) [%] | inhibition in vivo at 40 mg/kg [2] [%] | inhibition in vivo at 20 mg/kg [2] [%]
1 | CC(=NNCCc1ccccc1)C(=O)O [A, 2-(phenethylhydrazono)-propionic acid, reference compound] | 10 to 15 | 0 | – | – | –
2 | CC(=NNCCC1CCCCC1)C(=O)O [B, 2-(2-cyclohexylethylhydrazono)-propionic acid, reference compound] | 15 | – | 0 | – | –
3 | CC(=NNCCOc1ccc(C)cc1)C(=O)O [Example 1, 2-(2-p-Tolyloxyethylhydrazono)-propionic acid] | 25 | – | – | 25 | –
4 | CC(=NNCCOc1ccccc1)C(=O)O [Example 1b, 2-(2-phenoxyethylhydrazono)-propionic acid] | 25 | – | – | 98 | –
5 | COCCOCCNN=C(C)C(=O)[O-].[Na+] [Example 2a, sodium 2-[2-(2-methoxyethoxy)-ethylhydrazono]-propionate] | > 50 | – | – | 37 | –
6 | CC(=NNCCOCc1ccccc1)C(=O)[O-].[Na+] [Example 2b, sodium 2-(2-benzyloxyethylhydrazono)-propionate] | > 50 | – | – | 49.9 | –
7 | C=CCSCCNN=C(C)C(=O)[O-].[Na+] [Example 2c, sodium 2-(2-allylthioethylhydrazono)-propionate] | 10 to 25 | 16 | – | – | –
8 | CC(=NNCCSc1ccccc1)C(=O)[O-].[Na+] [Example 2d, sodium 2-(2-phenylthioethylhydrazono)-propionate] | 25 to 50 | – | – | 33 | –
9 | C=CCOCCNN=C(C)C(=O)O [Example 3, 2-(2-Allyloxyethylhydrazono)-propionic acid] | 25 | – | – | – | 9
10 | COCCCCCCNN=C(C)C(=O)O [Example 3a, 2-(6-methoxyhexylhydrazono)-propionic acid] | 20 | – | – | – | 11
11 | CCOCCCCCNN=C(C)C(=O)O [Example 3b, 2-(5-ethoxypentylhydrazono)-propionic acid] | 20 to 25 | – | – | – | 34
12 | CC(=NNCCOCCC1CCCCC1)C(=O)O [Example 3d, 2-[2-(2-cyclohexylethoxy)-ethylhydrazono]-propionic acid] | > 50 | – | – | 15 | –
13 | CC(=NNCCCOCc1ccccc1)C(=O)O [Example 3e, 2-(3-benzyloxypropylhydrazono)-propionic acid] | > 50 | – | – | 44 | –
14 | COCCSCCNN=C(C)C(=O)O [Example 3f, 2-[2-(2-methoxyethylthio)-ethylhydrazono]-propionic acid] | 25 | – | – | – | 17.3
